According to patent US6670132B2, “Determining non-nucleic acid molecule binding to target by competition with nucleic acid ligand” (Gilead Sciences, Inc., priority 1999, dated 2003):
[NH2-N] = 2'-amino-2'-deoxy sugar (2'-aminopyrimidine nucleotide) (N: the base)

Key:
PDGF-BB [1] = target: T1, PDGF-BB (Homo sapiens, UniProt P01127); assay: Binding of PDGF aptamers to PDGF-BB
T1 construct: purchased R&D Systems (Minneapolis, Minn.)
Excerpt: For the PDGF competition assay, a DNA PDGF aptamer sequence identified previously was used. The aptamer and methods used herein are described in detail in Example One. Aptamers obtained in this experiment bind preferentially to the B-chain of PDGF in a manner that inhibits receptor binding and PDGF-BB-induced DNA synthesis in vitro. Using photo-crosslinking experiments, it has been shown that a specific nucleotide in the aptamer interacts with phenylalanine-84 of the PDGF B-chain which is located near the region of PDGF know to be involved in receptor binding (Green, L. S. et al. (1996) Biochemistry 35, 14413-24). […] Thus, the aptamer used for competition binding experiments, 20tb, is a 27-mer that binds to PDGF-BB with a Kd of 0.5 nM.
A panel of oligoanions, mostly in the naphthalene sulfonic acid class, were screened for their ability to displace a ^32P-radiolabeled aptamer (20tb) from PDGF-BB. […] A nitrocellulose filter binding method was used to separate bound from unbound aptamer. Structures of competitors used in this competition assay are shown in FIGS. 1A-C along with the Kdc values calculated form the competition profiles (FIG. 2) according to equations (1)-(3) (Experimental Methods). For all competition experiments, the concentration of the ^32P end-labeled 20tb aptamer and PDGF-BB was 1.16 nM and 1.0 nM, respectively. […]

[2] = system: wheat germ agglutinin (WGA); assay: Wheat germ agglutinin aptamer competition assay (displacement of 32P-labeled 11.20, nitrocellulose filter binding); design: species or system Triticum vulgare; settings: 10 nM 32P end-labeled 11.20, 10 nM WGA, room temperature
Procedure: Small molecule oligosaccharides were screened for their ability to compete with WGA aptamer 11.20 for binding to wheat germ agglutinin protein. The small molecule (or cold 11.20) competitors at varying concentrations were mixed with the 5′-32P end-labeled 11.20 ligand at room temperature. Then WGA was added to the mixture and allowed to equilibrate for 60 minutes at room temperature. The competition mixtures (90 μL volume) all had 32P end-labeled 11.20 at 10 nM, WGA at 10 nM and were in 25 mM Hepes, 137 mM NaCl, 2.7 mM KCl, 1 mM MgCl2, 1 mM CaCl2, 0.067% human serum albumin (HSA), at pH 7.4 (HBSMC). Aptamer bound to WGA was separated from free aptamer by filtration through pre-washed […] nitrocellulose membrane filters. Filters were washed with 5 mL HBSMC at room temperature. The filters were placed in tubes with scintillant and the radioactivity counted to quantitate the fraction of 32P end-labeled 11.20 bound at each competitor concentration.
Competition experiments were analyzed by the following equation to determine the concentration of free protein, [PF], as a function of the total concentration of competitor added, [CT]:
[PF]=[PT]/(1+KdR[RT]/(1+KdR[PF])+KdC[CT]/(1+KdC[PF])) (1)
where KdR is the binding constant of species R to the protein (assuming 1:1 stoichiometry) and KdC is the binding constant of species C, the competitor, to the protein (assuming 1:1 stoichiometry). Equation (1) was solved to self-consistency of [PF] to a precision of 1×10^−15. Using these values of [PF], the concentration of protein-ligand complex [PR] as a function of [CT] was determined by the following equation:
[PR]=KdR[RT][PF](1+KdC[PF]) (2)
Since the experimental data are expressed as %[PR], the calculated concentration of [PR] was normalized by [PR0], the [PR] in the absence of the competitor. [PR0] was obtained by solving equation (1) where [CT]=0. The maximum (M) and minimum (B) %[PR] were allowed to float during the analysis as shown in the following equation:
%[PR]=[PR]/[PR0](M−B)+B (3)
A non-linear least-squares fitting procedure was used as described by Bates and Watts (Bates, D. M. and Watts, D. G. 1988 in Non-Linear Regression Analysis and its Applications, D. M. Bates and D. G. Watts editors, John Wiley & Sons, NY, N.Y.). […]
A group of carbohydrates related to GlcNAc3 were tested for their ability to displace radiolabeled 11.20 from WGA. […] Structures of competitors used in this assay are shown in FIGS. 3A-C along with the Kdc values calculated from the competition profiles (FIGS. 4A-D) according to equations (1)-(3). […]

WGA = settings: cited from earlier work; for concentration required to completely inhibit WGA-mediated agglutination: tested previously (U.S. Pat. No. 5,780,228)
PDGF-BB [3] = target: T1, PDGF-BB; assay: PDGF aptamer competition assay (displacement of 32P-labeled 20tb, nitrocellulose filter binding); settings: competition with 1.16 nM 32P end-labeled 20tb, 1.0 nM PDGF-BB, 37° C.; calculated from competition profiles by equations (1)-(3); read-out: KdC
Procedure: Small molecule oligoanions were screened for their ability to compete with PDGF aptamer 20tb for binding to the PDGF-BB protein. The small molecule (or cold 20tb) competitors at varying concentrations were mixed with the 5′-^32P end-labeled 20tb ligand at room temperature. PDGF was then added to the mixture and allowed to equilibrate for 45 minutes at room temperature followed by 15 minutes at 37° C. The competition mixtures (90 μL volume) all had ^32P end-labeled 20tb at 1.16 nM, PDGF-BB at 1 nM and were in 25 mM Hepes, 137 mM NaCl, 2.7 mM KCl, 1 mM MgCl2, 1 mM CaCl2, 0.067% human serum albumin (HSA), at pH 7.4 (HBSMC). […] The filters were placed in tubes with scintillant and the radioactivity counted to quantitate the fraction of ^32P end-labeled 20tb bound at each competitor concentration.
Competition experiments were analyzed by the following equation to determine the concentration of free protein, [PF], as a function of the total concentration of competitor added, [CT]: […]
where KdR is the binding constant of species R to the protein (assuming 1:1 stoichiometry) and KdC is the binding constant of species C, the competitor, to the protein (assuming 1:1 stoichiometry). […] Using these values of [PF], the concentration of protein-ligand complex [PR] as a function of [CT] was determined by the following equation: […]

T1 sequence (P01127 82-190 limits assumed): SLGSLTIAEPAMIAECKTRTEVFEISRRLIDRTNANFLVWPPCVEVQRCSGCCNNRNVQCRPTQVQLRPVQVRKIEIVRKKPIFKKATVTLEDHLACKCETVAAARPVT

20ta: synthetic 33-mer DNA oligo, PDGF aptamer, 5′CGGGCGCGTTCTTCGTGGTTACTTTTAGTCCCG (DNA, backbone not given here)
Kd (PDGF-BB [1]; aptamer binding to PDGF): 0.05 nM

20tb: synthetic 27-mer DNA oligo, truncated PDGF aptamer, 5′GGGCCGTTTCGGGTTACTTTTAGTCCC (DNA, backbone not given here)
Kd (PDGF-BB [1]; aptamer binding to PDGF-BB): 0.5 nM

CC(=O)N[C@H]1[C@H](O[C@H]2[C@H](O)[C@@H](NC(C)=O)C(O)O[C@@H]2CO)O[C@H](CO)[C@@H](O)[C@@H]1O (some centres unmarked) [(GlcNAc)2, N,N′-diacetylchitobiose]
ability to displace radiolabeled 11.20 from WGA [2]: best ligands

CC(=O)N[C@H]1[C@H](O[C@H]2[C@H](O)[C@@H](NC(C)=O)C(O)O[C@@H]2CO)O[C@H](CO)[C@@H](O[C@@H]2O[C@H](CO)[C@@H](O)[C@H](O)[C@H]2NC(C)=O)[C@@H]1O (some centres unmarked) [(GlcNAc)3, N,N′,N″-triacetylchitotriose]
concentration required to completely inhibit WGA-mediated agglutination (WGA): 18.5 µM
ability to displace radiolabeled 11.20 from WGA [2]: best ligands

CC(=O)N[C@H]1[C@H](O[C@H]2[C@H](O)[C@@H](NC(C)=O)C(O)O[C@@H]2CO)O[C@H](CO)[C@@H](O[C@@H]2O[C@H](CO)[C@@H](O[C@@H]3O[C@H](CO)[C@@H](O)[C@H](O)[C@H]3NC(C)=O)[C@H](O)[C@H]2NC(C)=O)[C@@H]1O (some centres unmarked) [(GlcNAc)4, N,N′,N″,N′″-tetraacetyltetraose]
ability to displace radiolabeled 11.20 from WGA [2]: best ligands

CC(=O)N[C@H]1C(O)O[C@H](CO)[C@@H](O)[C@@H]1O (stereo partly drawn) [GlcNAc, N-acetyl-D-glucosamine]
concentration required to completely inhibit WGA-mediated agglutination (WGA): 800 µM
ability to displace radiolabeled 11.20 from WGA [2]: not a competitor

O=S(=O)(O)c1ccc(N=Nc2c(S(=O)(=O)O)cc3cc(S(=O)(=O)O)cc(O)c3c2O)cc1 [SPADNS, 2-(4-sulfophenylazo)-1,8-dihydroxy-3,6-naphthalene disulfonic acid]
Kd (PDGF-BB [3]): 19 µM

O=S(=O)(O)c1ccc2c(S(=O)(=O)O)cc(S(=O)(=O)O)cc2c1 [naphthalene 1,3,6-trisulfonic acid]
Kd (PDGF-BB [3]): 870 µM

B1: 11.20: 98-mer RNA transcript with 2′aminopyrimidine bases, WGA aptamer (nucleic acid)
chain: GGGAAAAGCGAAUCAUACACAAGAUUGGUCGUACUGGACAGAGCCGUGGUAGAGGGAUUGGGACAAAGUGUCAGCUCCGCCAGAGACCAACCGAGAA
modifications: [NH2-N] at CU, RNA at AG, all phosphodiester, methylation of C not given here
inhibition of WGA-mediated agglutination of sheep erythrocytes (WGA; as described in U.S. Pat. No. 5,780,228): potently inhibited
